From US5198445A, “Composition and use of substituted 3-thio-2-propynenitriles as industrial antimicrobials” (The Dow Chemical Company, priority 1992, dated 1993)
Converted amounts (≈) assume the structure as drawn. Like-named read-outs stand apart in the source and are kept apart here.

How the values were obtained:
Bacillus subtilis (Bs) = assay: MIC in nutrient agar, Bacillus subtilis; assay type: cell-based, Bacillus subtilis ATCC 8473; details: Bacillus subtilis, read-out: Minimum Inhibitory Concentration, Bs
Experimental: (§1) The minimum inhibitory concentration (MIC) for the compounds listed in Table I is determined for 9 bacteria, using nutrient agar, and 7 yeast and fungi, using malt yeast agar. A one percent solution of the test compound is prepared in a mixture of acetone and water. Nutrient agar is prepared at pH 6.8, representing a neutral medium, and at pH 8.2, representing an alkaline medium. The nutrient agars are prepared by adding 23 g of nutrient agar to one-liter of deionized water. In addition, the alkaline medium is prepared by adjusting a 0.04M solution of N-[tris-(hydroxymethyl)methyl]-glycine buffered deionized water with concentrated sodium hydroxide to a pH of […]. Malt yeast agar is prepared by adding 3 g yeast extract and 45 g malt agar per liter of deionized water. The specific agar is dispensed in 30 ml aliquots into 25×200 mm test tubes, capped and autoclaved for 15 minutes at 115° C. The test tubes containing the agar are cooled in a water bath until the temperature of the agar is 48° C. Then, an appropriate amount of the one percent solution of the test compound is added (except in the controls where no compound is added) to the respective test tubes so that the final concentrations are 500, 250, 100, 50, 25, 10, 5, 2.5, 1.0 and zero parts per million of the test compound in the agar, thus having a known concentration of test compound dispersed therein. The contents of the test tubes are then transferred to respective petri plates. After drying for 24 hours, the petri plates containing nutrient agar are inoculated with bacteria and those containing malt yeast agar are inoculated with yeast and fungi.
(§2) The inoculation with bacteria is accomplished by using the following procedure. Twenty-four hour-cultures of each of the bacteria are prepared by incubating the respective bacteria in tubes containing nutrient broth for 24 hours at 30° C. in a shaker. Dilutions of each of the 24 hour-cultures are made so that nine separate suspensions (one for each of the nine test bacteria) are made, each containing 10^8 colony forming units (CFU) per ml of suspension of a particular bacteria. Aliquots of 0.3 ml of each of the bacterial suspensions are used to fill the individual wells of Steer's Replicator. For each microbial suspension, 0.3 ml was used to fill three wells (i.e., three wells of 0.3 ml each) so that for the nine different bacteria, 27 wells are filled. The Steer's Replicator is then used to inoculate both the neutral and alkaline pH nutrient agar petri plates.
(§3) The inoculated petri plates are incubated at 30° C. for 48 hours and then read to determine if the test compound which is incorporated into the agar prevented growth of the respective bacteria.
(§4) Table II lists the bacteria, yeast and fungi used in the MIC test described above along with their respective American Type Culture Collection (ATCC) identification numbers.
(§5) The following MIC and MEC antimicrobial tests, whose results are shown in Tables XIII-XVII, are performed using the same methods as described hereinabove.

[1] = test system: Enterobacter aerogenes (Ea); assay: MIC in nutrient agar, Enterobacter aerogenes; assay type: cell-based, Enterobacter aerogenes ATCC 13048
Experimental: as §1, §2, §3, §4, §5

Escherichia coli (Ec) = assay: MIC in nutrient agar, Escherichia coli; assay type: cell-based, Escherichia coli ATCC 11229
Experimental: as §1, §2, §3, §4, §5

[2] = test system: Klebsiella pneumoniae (Kp); assay: MIC in nutrient agar, Klebsiella pneumoniae; assay type: cell-based, Klebsiella pneumoniae ATCC 8308
Experimental: as §1, §2, §3, §4, §5

Proteus vulgaris (Pv) = assay: MIC in nutrient agar, Proteus vulgaris; assay type: cell-based, Proteus vulgaris ATCC 881
Experimental: as §1, §2, §3, §4, §5

[3] = test system: Pseudomonas aeruginosa (PRD-10); assay: MIC in nutrient agar, Pseudomonas aeruginosa PRD-10; assay type: cell-based, Pseudomonas aeruginosa ATCC 15442
Experimental: as §1, §2, §3, §4, §5

[4] = test system: Pseudomonas aeruginosa (Pa); assay: MIC in nutrient agar, Pseudomonas aeruginosa; assay type: cell-based, Pseudomonas aeruginosa ATCC 10145
Experimental: as §1, §2, §3, §4, §5

[5] = test system: Salmonella choleraesuis (Sc); assay: MIC in nutrient agar, Salmonella choleraesuis; assay type: cell-based, Salmonella choleraesuis ATCC 10708
Experimental: as §1, §2, §3, §4, §5

[6] = test system: Staphylococcus aureus (Sa); assay: MIC in nutrient agar, Staphylococcus aureus; assay type: cell-based, Staphylococcus aureus ATCC 6538; details: Staphylococcus aureus, read-out: Minimum Inhibitory Concentration, Sa
Experimental: as §1, §2, §3, §4, §5

Aspergillus niger (An) = assay: MIC in malt yeast agar, Aspergillus niger; assay type: cell-based, Aspergillus niger ATCC 16404; details: malt yeast agar; read-out: Minimum Inhibitory Concentration, An
Experimental: as §1
(§6) The inoculation with the yeast and fungi is accomplished as follows. Cultures of yeast and fungi are incubated for seven days on malt yeast agar at 30° C. These cultures are used to prepare suspensions by the following procedure. A suspension of each organism is prepared by adding 10 ml of sterile saline and 10 microliters of octylphenoxy polyethoxy ethanol (TRITON® X-100, a trademark of Rohm & Haas Company) to the agar slant of yeast or fungi. The sterile saline/octylphenoxy polyethoxy ethanol solution is then agitated with a sterile swab to suspend the microorganism grown on the slant. Each resulting suspension is diluted into sterile saline (1 part suspension: 9 parts sterile saline). Aliquots of these dilutions are placed in individual wells of Steer's Replicator and petri plates inoculated as previously described. The petri plates are incubated at 30° C. and read after 48 hours for yeast and 72 hours for fungi.
as §4, §5

Candida albicans (Ca) = assay: MIC in malt yeast agar, Candida albicans; assay type: cell-based, Candida albicans ATCC 10231; details: malt yeast agar; read-out: Minimum Inhibitory Concentration, Ca
Experimental: as §1, §6, §4, §5

[7] = test system: Penicillium chrysogenum (Pc); assay: MIC in malt yeast agar, Penicillium chrysogenum; assay type: cell-based, Penicillium chrysogenum ATCC 9480; details: malt yeast agar; read-out: Minimum Inhibitory Concentration, Pc
Experimental: as §1, §6, §4, §5

[8] = test system: Saccharomyces cerevisiae (Sc); assay: MIC in malt yeast agar, Saccharomyces cerevisiae; assay type: cell-based, Saccharomyces cerevisiae ATCC 4105; details: read-out: Minimum Inhibitory Concentration, Sc
Experimental: as §1, §6, §4, §5

Trichoderma viride (Tv) = assay: MIC in malt yeast agar, Trichoderma viride; assay type: cell-based, Trichoderma viride ATCC 8678; details: malt yeast agar; read-out: Minimum Inhibitory Concentration, Tv
Experimental: as §1, §6, §4, §5

[9] = test system: Aureobasidium pullulan (Ap); assay: MIC in malt yeast agar, Aureobasidium pullulan; assay type: cell-based, Aureobasidium pullulan ATCC 16622; details: malt yeast agar; read-out: Minimum Inhibitory Concentration, Ap
Experimental: as §1, §6, §4, §5

Fusarium oxysporum (Fo) = assay: MIC in malt yeast agar, Fusarium oxysporum; assay type: cell-based, Fusarium oxysporum ATCC 48112; details: malt yeast agar; read-out: Minimum Inhibitory Concentration, Fo
Experimental: as §1, §6, §4, §5

[10] = pH 6.8, read-out: Minimum Inhibitory Concentration, Kp
[11] = pH 8.2, read-out: Minimum Inhibitory Concentration, Kp
[12] = pH 6.8, read-out: Minimum Inhibitory Concentration, Pv
[13] = pH 8.2, read-out: Minimum Inhibitory Concentration, Pv
[14] = Pseudomonas aeruginosa, pH 8.2; read-out: Minimum Inhibitory Concentration, PRD
[15] = pH 6.8, read-out: Minimum Inhibitory Concentration, Pa
[16] = pH 8.2, read-out: Minimum Inhibitory Concentration, Pa

SMILES	MIC (Bacillus subtilis (Bs); pH 6.8) [µg/mL]	MIC (Bacillus subtilis (Bs); pH 8.2) [µg/mL]	MIC [2, 10] [µg/mL]	MIC [2, 11] [µg/mL]	MIC (Proteus vulgaris (Pv); [12]) [µg/mL]	MIC (Proteus vulgaris (Pv); [13]) [µg/mL]	MIC [3, 14] [µg/mL]	MIC [4, 15] [µg/mL]	MIC [4, 16] [µg/mL]	MIC ([6]; pH 6.8) [µg/mL]	MIC ([6]; pH 8.2) [µg/mL]	MIC (Aspergillus niger (An)) [µg/mL]	MIC (Candida albicans (Ca)) [µg/mL]	MIC [7] [µg/mL]	MIC (Trichoderma viride (Tv)) [µg/mL]	MIC [9] [µg/mL]	MIC (Fusarium oxysporum (Fo)) [µg/mL]	further results
CCCCCCCCCCSC#CC#N [E, 3-decylthio-2-propynenitrile]	100 (≈ 448 µM)	25 (≈ 112 µM)	> 500	> 500	> 500	> 500	25 (≈ 112 µM)	> 500	500 (≈ 2240 µM)	25 (≈ 112 µM)	25 (≈ 112 µM)	> 500	> 500	500 (≈ 2240 µM)	500 (≈ 2240 µM)	> 500	500 (≈ 2240 µM)	MIC ([1]; Klebsiella aerogenes, pH 6.8, read-out: Minimum Inhibitory Concentration, Ea): > 500 µg/mL; MIC ([1]; Klebsiella aerogenes, pH 8.2, read-out: Minimum Inhibitory Concentration, Ea): > 500 µg/mL; MIC (Escherichia coli (Ec); Escherichia coli, pH 6.8, read-out: Minimum Inhibitory Concentration, Ec): > 500 µg/mL; MIC (Escherichia coli (Ec); Escherichia coli, pH 8.2; read-out: Minimum Inhibitory Concentration, Ec): 100 µg/mL (≈ 448 µM); MIC ([3]; Pseudomonas aeruginosa, pH 6.8, read-out: Minimum Inhibitory Concentration, PRD): > 500 µg/mL; MIC ([5]; Salmonella enterica, CHOLERAESUIS, pH 6.8, read-out: Minimum Inhibitory Concentration, Sc): > 500 µg/mL; MIC ([5]; Salmonella enterica, CHOLERAESUIS, pH 8.2, read-out: Minimum Inhibitory Concentration, Sc): > 500 µg/mL; MIC [8]: 25 µg/mL (≈ 112 µM)
CCCCCCCCCCCCSC#CC#N [F, 3-dodecylthio-2-propynenitrile]	100 (≈ 398 µM)	100 (≈ 398 µM)	> 500	> 500	> 500	> 500	100 (≈ 398 µM)	> 500	500 (≈ 1990 µM)	> 500	25 (≈ 99.4 µM)	> 500	> 500	500 (≈ 1990 µM)	> 500	> 500	> 500	MIC ([1]; Klebsiella aerogenes, pH 6.8; read-out: Minimum Inhibitory Concentration, Ea): > 500 µg/mL; MIC ([1]; Klebsiella aerogenes, pH 8.2; read-out: Minimum Inhibitory Concentration, Ea): > 500 µg/mL; MIC (Escherichia coli (Ec); Escherichia coli, pH 6.8; read-out: Minimum Inhibitory Concentration, Ec): > 500 µg/mL; MIC (Escherichia coli (Ec); Escherichia coli, pH 8.2, read-out: Minimum Inhibitory Concentration, Ec): > 500 µg/mL; MIC ([3]; Pseudomonas aeruginosa, pH 6.8; read-out: Minimum Inhibitory Concentration, PRD): > 500 µg/mL; MIC ([5]; Salmonella enterica, CHOLERAESUIS, pH 6.8; read-out: Minimum Inhibitory Concentration, Sc): > 500 µg/mL; MIC ([5]; Salmonella enterica, CHOLERAESUIS, pH 8.2; read-out: Minimum Inhibitory Concentration, Sc): > 500 µg/mL; MIC ([8]; malt yeast agar): > 500 µg/mL
